Data published in US11109593B2, “Isoxazolin-5-one derivative and herbicide containing same as active ingredient” (HOKKO CHEMICAL INDUSTRY CO., LTD., priority 2017, dated 2021).

Assays:
Type in all cases: in vivo
Echinochloa crus-galli [1] = assay: Test Example 1: herbicidal effect test by treatment of rice paddy soil (immediately after seeding); settings: 120 g/10a active ingredient, dry weight vs untreated area, 14 days after treatment
Method in brief: (§1)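 Paddy soil in pots with compound fertilizer, puddled; 30 seeds per species sown at 0–1 cm, flooded ~3 cm, greenhouse. Water-diluted emulsions dropped onto water immediately after seeding at 120 g active ingredient per 10 ares, duplicate. Herbicidal rate (%) from plant dry weight versus untreated, 14 days after treatment.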

Scirpus juncoides [2] = assay: as above; settings: 120 g/10a active ingredient, dry weight vs untreated area, 14 days after treatment
Method in brief: as §1

[3] = system: broad leaf weeds (Lindernia pyxidaria and Monochoria vaginalis); assay: as above; settings: 120 g/10a active ingredient, dry weight vs untreated area, 14 days after treatment
Method in brief: as §1

Echinochloa crus-galli [4] = assay: Test Example 2: herbicidal effect test by treatment during growing period in paddy rice cultivation (seven days after seeding); settings: 120 g/10a active ingredient, assessed 14 days after treatment, dry weight vs untreated area
Method in brief: (§2)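 Greenhouse flooded-pot test, seeds sown in puddled paddy soil; emulsion applied into water 7 d after seeding, 120 g a.i./10 a. Dry-weight-based herbicidal rate at 14 d, n=2.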

Scirpus juncoides [5] = assay: as above; settings: 120 g/10a active ingredient, assessed 14 days after treatment, dry weight vs untreated area
Method in brief: as §2

[6] = system: broad leaf weeds (Lindernia pyxidaria and Monochoria vaginalis); assay: as above; settings: 120 g/10a active ingredient, assessed 14 days after treatment, dry weight vs untreated area
Method in brief: as §2

Amaranthus viridis [7] = assay: Test Example 3: herbicidal effect test by treatment of dry field farming soil (one day after seeding); settings: 120 g/10a active ingredient, evaluated 14 days after treatment
Method in brief: (§3)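 Compound emulsions are sprayed on the soil surface one day after sowing (120 g a.i. per 10 ares) before weeds emerge. Effect is expressed as percent dry-weight reduction versus untreated controls 14 days post-treatment.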

Chenopodium album [8] = assay: as above; settings: 120 g/10a active ingredient, evaluated 14 days after treatment
Method in brief: as §3

Echinochloa crus-galli [9] = assay: as above; settings: 120 g/10a active ingredient, evaluated 14 days after treatment
Method in brief: as §3

southern crabgrass [10] = assay: as above; settings: 120 g/10a active ingredient, evaluated 14 days after treatment
Method in brief: as §3

Amaranthus viridis [11] = assay: Test Example 4: herbicidal effect test by treatment of leave and stem in dry field farming (seven days after seeding); settings: 120 g/10a active ingredient; emulsion sprayed seven days after seeding; evaluated 14 days after treatment
Method in brief: (§4)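 Twenty seeds per species were mixed into the top 1 cm of alluvial soil in 36 cm^2 pots; emulsions were sprayed seven days after seeding at 100 L per 10 ares (120 g active ingredient per 10 ares). Herbicidal rate (%) = {1 − treated/untreated mean dry weight} × 100, 14 days after treatment, duplicate.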

Chenopodium album [12] = assay: as above; settings: 120 g/10a active ingredient; emulsion sprayed seven days after seeding; evaluated 14 days after treatment
Method in brief: as §4

Echinochloa crus-galli [13] = assay: as above; settings: 120 g/10a active ingredient; emulsion sprayed seven days after seeding; evaluated 14 days after treatment
Method in brief: as §4

southern crabgrass [14] = assay: as above; settings: 120 g/10a active ingredient; emulsion sprayed seven days after seeding; evaluated 14 days after treatment
Method in brief: as §4

Compound	Herbicidal rate (%) Echinochloa crus-galli (Echinochloa crus-galli [1])	Herbicidal rate (%) Scirpus juncoides (Scirpus juncoides [2])	Herbicidal rate (%) Lindernia pyxidaria [3]	Herbicidal rate (%) Monochoria vaginalis [3]	Herbicidal rate (%) Echinochloa crus-galli (Echinochloa crus-galli [4])	Herbicidal rate (%) Scirpus juncoides (Scirpus juncoides [5])	Herbicidal rate (%) Lindernia pyxidaria [6]	Herbicidal rate (%) Monochoria vaginalis [6]	herbicidal rate, Amaranthus viridis (Amaranthus viridis [7])	herbicidal rate, Chenopodium album (Chenopodium album [8])	herbicidal rate, Echinochloa crus-galli (Echinochloa crus-galli [9])	herbicidal rate, southern crabgrass (southern crabgrass [10])	herbicidal effect (herbicidal rate), Amaranthus viridis (Amaranthus viridis [11])	herbicidal effect (herbicidal rate), Chenopodium album (Chenopodium album [12])	herbicidal effect (herbicidal rate), Echinochloa crus-galli (Echinochloa crus-galli [13])	herbicidal effect (herbicidal rate), southern crabgrass (southern crabgrass [14])
CCC(C)n1oc(=O)c(Cc2ccccc2N(C(=O)OCCOC)S(=O)(=O)C(F)(F)F)c1C (stereo not shown) [Compound 1-731]	90%	90%	90%	90%	90%	90%	90%	90%	90%	90%	90%	90%	40%	40%	90%	90%
Cc1c(Cc2ccccc2N(C(=O)C2CC2)S(=O)(=O)C(F)(F)F)c(=O)on1CC(C)(C)C [Compound 1-407]	90%	90%	90%	90%	90%	90%	90%	90%	90%	90%	90%	90%	40%	40%	90%	90%
Cc1c(Cc2ccccc2N(S(=O)(=O)C(F)(F)F)S(=O)(=O)C(F)(F)F)c(=O)on1CC1(C)CC1 [Compound 1-993]	100%	100%	100%	100%	90%	90%	50%	60%	40%	40%	90%	80%	40%	40%	60%	40%
CCOC(=O)N(c1ccccc1Cc1c(C)n(CCSC)oc1=O)S(=O)(=O)C(F)(F)F [Compound 1-620]	90%	90%	90%	90%	90%	90%	90%	90%	90%	90%	90%	90%	40%	40%	90%	90%
Cc1c(Cc2ccccc2N(C(=O)CC(C)C)S(=O)(=O)C(F)(F)F)c(=O)on1CC(C)C [Compound 1-354]	100%	90%	90%	90%	100%	90%	70%	90%	90%	90%	90%	80%	40%	40%	80%	60%
CCCC(C)n1oc(=O)c(Cc2ccccc2N(S(C)(=O)=O)S(=O)(=O)C(F)(F)F)c1C (stereo not shown) [Compound 1-894]	100%	100%	80%	60%	90%	80%	70%	70%	70%	60%	90%	90%	60%	60%	90%	90%
CSCCn1oc(=O)c(Cc2ccccc2N(C(=O)C(C)C)S(=O)(=O)C(F)(F)F)c1C [Compound 1-336]	90%	90%	90%	90%	90%	90%	90%	90%	90%	90%	90%	90%	40%	40%	90%	90%
COCC(C)n1oc(=O)c(Cc2ccccc2N(C(=O)OC)S(=O)(=O)C(F)(F)F)c1C (stereo not shown) [Compound 1-587]	90%	90%	90%	90%	90%	90%	90%	90%	90%	90%	90%	90%	40%	40%	90%	90%
CCCC(CC)n1oc(=O)c(Cc2ccccc2N(S(=O)(=O)C(F)(F)F)S(=O)(=O)C(F)(F)F)c1C (stereo not shown) [Compound 1-971]	100%	100%	100%	100%	100%	90%	80%	90%	80%	60%	90%	80%	40%	50%	90%	90%
CCCCC(CC)Cn1oc(=O)c(Cc2ccccc2NS(=O)(=O)C(F)(F)F)c1C (stereo not shown) [Compound 1-130]	100%	100%	100%	100%	100%	80%	90%	90%	40%	50%	90%	70%	50%	40%	60%	60%
